In patent US20240299385A1 (ReWind Therapeutics NV, priority 2021, published 2024):

Target: T1, human GPR17 receptor (Homo sapiens, UniProt Q13304)
T1 construct: host or cells: HEK-293
Test: Calcium mobilization functional assay (Fluo-8, FLIPR TETRA) in HEK-293 hGPR17 (Gα-q assay)
Assay type: cell-based
Conditions: antagonism of MDL29,951 (~EC80) induced Ca2+ signal; cell line (HEK-293 hGPR17 or HEK-293 Suchi5 hGPR17) not given
Method: HEK-293 cells stably expressing the human GPR17 receptor (HEK-293 hGPR17) developed by Axxam (Bresso, Milan, Italy) were cultured at 37° C. in a humidified atmosphere of 5% CO2. Cells were grown in EMEM supplemented with FBS (10%), Penicillin/Streptomycin (1%), Ultraglutamine I (2 mM), puromycin (0.6 μg/mL), G418 (0.4 mg/mL), zeocin (50 μg/mL). This cell line was used to test the compound antagonistic activity by monitoring the Gα-q based signaling. Signaling via Gα-q leads to mobilization of calcium from internal stores. Elevated intracellular calcium levels can then be measured with calcium-sensitive fluorescent dyes (e.g., Fluo 8-No Wash Dye).
GPR17 activation leads to both an increase in intracellular calcium (via Gα-q) and a decrease in cAMP levels (via Gα-i), implicating that both of these pathways play a role for in vivo function.
Experiments were performed using the below cell lines, as described in part 1: • HEK-293 hGPR17 (used to study the compounds acting via Gα-q pathway) • HEK-293 Suchi5 hGPR17 (used to study the compounds acting via Gα-i pathway, where the Gα-i signaling is switched to a Gα-q signaling thanks to the Gα-i/q chimera Suchi5)
GPR17 activation was able to induce an endoplasmic reticulum calcium (Ca^2+) store release in cytosol which could be measured using the fluorescent Ca^2+ sensitive dye Fluo-8 No Wash Dye as readout.
HEK-293 hGPR17 and HEK-293 Suchi5 hGPR17 were seeded at a density of 15,000 cells/well into poly-D-lysine coated black 384-well plates with clear bottom in complete medium. Cells were incubated overnight at 37° C. in a humidified atmosphere of 5% CO2. Twenty-four hours after seeding, the culture medium was carefully removed manually and the cells were loaded for 60 minutes at room temperature with the Ca^2+ sensitive Fluo-8 No Wash Dye, according to manufacturer's instructions. Cells were then assayed using a fluorometric imaging plate reader (FLIPR^TETRA). Fluorescence (excitation: 470-495 nm; emission: 515-575 nm) was recorded during the experiment. […] After twenty minutes, a second injection of MDL29,951 at ˜EC80 (500 nM for HEK-293 hGPR17 and 2 nM for HEK-293 Suchi5 hGPR17) in assay buffer was performed at the FLIPR^TETRA and the signal of the emitted fluorescence was recorded for additional 2 minutes. All the compound injections and incubations were performed in duplicate. For data quality and data analysis the Screener® 16.0.6 (Genedata) software was used.

T1 sequence (Q13304 whole entry): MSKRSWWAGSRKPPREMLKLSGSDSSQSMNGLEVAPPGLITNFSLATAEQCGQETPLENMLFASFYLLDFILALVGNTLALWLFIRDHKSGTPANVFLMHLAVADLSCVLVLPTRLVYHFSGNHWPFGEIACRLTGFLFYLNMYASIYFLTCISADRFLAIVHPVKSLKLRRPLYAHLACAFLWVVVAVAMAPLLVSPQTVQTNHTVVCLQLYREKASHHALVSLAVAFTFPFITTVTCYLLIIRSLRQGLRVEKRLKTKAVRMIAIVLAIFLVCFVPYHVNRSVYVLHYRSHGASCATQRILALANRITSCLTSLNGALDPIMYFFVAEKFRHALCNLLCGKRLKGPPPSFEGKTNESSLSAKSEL

Row | Structure (SMILES) | IC50
1 | N#Cc1ccc(NS(=O)(=O)c2c[nH]c(-c3cccc(Cl)c3F)c2)c(F)c1 [Cpd 039, 5-(3-chloro-2-fluoro-phenyl)-N-(4-cyano-2-fluoro-phenyl)-1H-pyrrole-3-sulfonamide] | < 500 nM
2 | N#Cc1ccc(NS(=O)(=O)c2c[nH]c(-c3cccc(F)c3F)c2)c(F)c1 [Cpd 040, N-(4-cyano-2-fluoro-phenyl)-5-(2,3-difluorophenyl)-1H-pyrrole-3-sulfonamide] | < 500 nM
3 | N#Cc1ccc(NS(=O)(=O)c2c[nH]c(-c3cc(F)ccc3F)c2)c(F)c1 [Cpd 041, N-(4-cyano-2-fluoro-phenyl)-5-(2,5-difluorophenyl)-1H-pyrrole-3-sulfonamide] | < 500 nM
4 | Cc1cccc(-c2cc(S(=O)(=O)Nc3ccc(C#N)cc3F)c[nH]2)c1F [Cpd 042, N-(4-cyano-2-fluoro-phenyl)-5-(2-fluoro-3-methyl-phenyl)-1H-pyrrole-3-sulfonamide] | < 500 nM
5 | Cc1ccc(-c2cc(S(=O)(=O)Nc3ccc(C#N)cc3F)c[nH]2)c(F)c1 [Cpd 043, N-(4-cyano-2-fluoro-phenyl)-5-(2-fluoro-4-methyl-phenyl)-1H-pyrrole-3-sulfonamide] | 500 to 5000 nM
6 | Cc1ccc(F)c(-c2cc(S(=O)(=O)Nc3ccc(C#N)cc3F)c[nH]2)c1 [Cpd 044, N-(4-cyano-2-fluoro-phenyl)-5-(2-fluoro-5-methyl-phenyl)-1H-pyrrole-3-sulfonamide] | < 500 nM
7 | O=S(=O)(Nc1cccc2c1OCO2)c1c[nH]c(-c2ccccc2F)c1 [Cpd 049, N-(1,3-benzodioxol-4-yl)-5-(2-fluorophenyl)-1H-pyrrole-3-sulfonamide] | 500 to 5000 nM
8 | O=S(=O)(Nc1cc(F)ccc1F)c1c[nH]c(-c2ccccc2F)c1 [Cpd 051, N-(2,5-difluorophenyl)-5-(2-fluorophenyl)-1H-pyrrole-3-sulfonamide] | 500 to 5000 nM
9 | O=S(=O)(Nc1ccc(Cl)cc1F)c1c[nH]c(-c2ccccc2F)c1 [Cpd 052, N-(4-chloro-2-fluoro-phenyl)-5-(2-fluorophenyl)-1H-pyrrole-3-sulfonamide] | 500 to 5000 nM
10 | N#CCc1ccc(NS(=O)(=O)c2c[nH]c(-c3ccccc3F)c2)c(F)c1 [Cpd 053, N-[4-(cyanomethyl)-2-fluoro-phenyl]-5-(2-fluorophenyl)-1H-pyrrole-3-sulfonamide] | 500 to 5000 nM
11 | O=S(=O)(Nc1ccc(C(F)(F)F)cc1F)c1c[nH]c(-c2ccccc2F)c1 [Cpd 055, 5-(2-fluorophenyl)-N-[2-fluoro-4-(trifluoromethyl)phenyl]-1H-pyrrole-3-sulfonamide] | 500 to 5000 nM
12 | N#Cc1ccc(NS(=O)(=O)c2c[nH]c(-c3ccccc3F)c2)cc1Cl [Cpd 058, N-(3-chloro-4-cyano-phenyl)-5-(2-fluorophenyl)-1H-pyrrole-3-sulfonamide] | 500 to 5000 nM
13 | COc1cc(NS(=O)(=O)c2c[nH]c(-c3ccccc3F)c2)ccc1C#N [Cpd 059, N-(4-cyano-3-methoxy-phenyl)-5-(2-fluorophenyl)-1H-pyrrole-3-sulfonamide] | 500 to 5000 nM
14 | COc1cc(C(F)(F)F)cnc1NS(=O)(=O)c1c[nH]c(-c2ccccc2F)c1 [Cpd 060, 5-(2-fluorophenyl)-N-[3-methoxy-5-(trifluoromethyl)pyridin-2-yl]-1H-pyrrole-3-sulfonamide] | 500 to 5000 nM
15 | COc1cc(CC#N)cnc1NS(=O)(=O)c1c[nH]c(-c2ccccc2)c1 [Cpd 061, N-[5-(cyanomethyl)-3-methoxypyridin-2-yl]-5-phenyl-1H-pyrrole-3-sulfonamide] | < 500 nM
16 | COc1cc(C#N)c(F)cc1NS(=O)(=O)c1c[nH]c(-c2ccccc2)c1 [Cpd 063, N-(4-cyano-5-fluoro-2-methoxyphenyl)-5-phenyl-1H-pyrrole-3-sulfonamide] | < 500 nM
17 | N#Cc1cc(F)c(NS(=O)(=O)c2c[nH]c(-c3ccccc3)c2)c(F)c1 [Cpd 064, N-(4-cyano-2,6-difluoro-phenyl)-5-phenyl-1H-pyrrole-3-sulfonamide] | 500 to 5000 nM
18 | N#Cc1ccc(NS(=O)(=O)c2c[nH]c(-c3ccncc3F)c2)c(F)c1 [Cpd 066, N-(4-cyano-2-fluoro-phenyl)-5-(3-fluoro-4-pyridyl)-1H-pyrrole-3-sulfonamide] | 500 to 5000 nM
19 | O=S(=O)(Nc1cccc2c1OCO2)c1c[nH]c(-c2ccccc2)c1 [Cpd 069, N-(1,3-benzodioxol-4-yl)-5-phenyl-1H-pyrrole-3-sulfonamide] | 500 to 5000 nM
20 | O=S(=O)(Nc1cc(F)c(C(F)(F)F)cc1F)c1c[nH]c(-c2ccccc2)c1 [Cpd 071, N-[2,5-difluoro-4-(trifluoromethyl)phenyl]-5-phenyl-1H-pyrrole-3-sulfonamide] | < 500 nM
21 | N#Cc1ccc(NS(=O)(=O)c2c[nH]c(-c3ccccc3F)c2)cc1F [Cpd 072, N-(4-cyano-3-fluoro-phenyl)-5-(2-fluorophenyl)-1H-pyrrole-3-sulfonamide] | < 500 nM
22 | O=S(=O)(Nc1cc(F)c(C(F)(F)F)cc1F)c1c[nH]c(-c2ccccc2F)c1 [Cpd 073, N-[2,5-difluoro-4-(trifluoromethyl)phenyl]-5-(2-fluorophenyl)-1H-pyrrole-3-sulfonamide] | < 500 nM

Further lines, results first:

Row | IC50 | Structure (SMILES)
23 | 500 to 5000 nM | N#Cc1ccc(NS(=O)(=O)c2c[nH]c(-c3ccc(Cl)cc3F)c2)c(F)c1 [Cpd 045, 5-(4-chloro-2-fluoro-phenyl)-N-(4-cyano-2-fluoro-phenyl)-1H-pyrrole-3-sulfonamide]
24 | < 500 nM | N#Cc1ccc(NS(=O)(=O)c2c[nH]c(-c3cc(Cl)ccc3F)c2)c(F)c1 [Cpd 046, 5-(5-chloro-2-fluoro-phenyl)-N-(4-cyano-2-fluoro-phenyl)-1H-pyrrole-3-sulfonamide]
25 | 500 to 5000 nM | O=S(=O)(Nc1cc(F)c(F)cc1F)c1c[nH]c(-c2ccccc2F)c1 [Cpd 047, 5-(2-fluorophenyl)-N-(2,4,5-trifluorophenyl)-1H-pyrrole-3-sulfonamide]
26 | 500 to 5000 nM | O=S(=O)(Nc1ncc(Cl)cc1F)c1c[nH]c(-c2ccccc2F)c1 [Cpd 048, N-(5-chloro-3-fluoro-2-pyridyl)-5-(2-fluorophenyl)-1H-pyrrole-3-sulfonamide]
27 | < 500 nM | O=S(=O)(Nc1cccc2nsnc12)c1c[nH]c(-c2ccccc2F)c1 [Cpd 050, N-(2,1,3-benzothiadiazol-4-yl)-5-(2-fluorophenyl)-1H-pyrrole-3-sulfonamide]
28 | 5000 to 50000 nM | O=S(=O)(Nc1ccc(F)cc1F)c1c[nH]c(-c2ccccc2F)c1 [Cpd 054, N-(2,4-difluorophenyl)-5-(2-fluorophenyl)-1H-pyrrole-3-sulfonamide]
29 | 5000 to 50000 nM | O=S(=O)(Nc1cccc(F)c1F)c1c[nH]c(-c2ccccc2F)c1 [Cpd 056, N-(2,3-difluorophenyl)-5-(2-fluorophenyl)-1H-pyrrole-3-sulfonamide]
30 | 500 to 5000 nM | Cc1ccc(NS(=O)(=O)c2c[nH]c(-c3ccccc3F)c2)c(F)c1 [Cpd 057, N-(2-fluoro-4-methyl-phenyl)-5-(2-fluorophenyl)-1H-pyrrole-3-sulfonamide]
31 | 500 to 5000 nM | COc1cc(Br)cnc1NS(=O)(=O)c1c[nH]c(-c2ccccc2)c1 [Cpd 062, N-(5-bromo-3-methoxypyridin-2-yl)-5-phenyl-1H-pyrrole-3-sulfonamide]
32 | < 500 nM | N#CCOc1cc(F)c(NS(=O)(=O)c2c[nH]c(-c3ccccc3)c2)cc1F [Cpd 065, N-[4-(cyanomethoxy)-2,5-difluoro-phenyl]-5-phenyl-1H-pyrrole-3-sulfonamide]
33 | 5000 to 50000 nM | Cc1[nH]cc(S(=O)(=O)Nc2ccc(C#N)cc2F)c1Cc1ccccc1 [Cpd 067, 4-benzyl-N-(4-cyano-2-fluorophenyl)-5-methyl-1H-pyrrole-3-sulfonamide]
34 | < 500 nM | O=S(=O)(Nc1ncc(Cl)cc1F)c1c[nH]c(-c2ccccc2)c1 [Cpd 068, N-(5-chloro-3-fluoro-2-pyridyl)-5-phenyl-1H-pyrrole-3-sulfonamide]
35 | < 500 nM | Cc1cc(F)c(NS(=O)(=O)c2c[nH]c(-c3ccccc3)c2)cc1F [Cpd 070, N-(2,5-difluoro-4-methyl-phenyl)-5-phenyl-1H-pyrrole-3-sulfonamide]
36 | < 500 nM | N#Cc1cc(F)c(NS(=O)(=O)c2c[nH]c(-c3ccccc3F)c2)cc1F [Cpd 074, N-(4-cyano-2,5-difluoro-phenyl)-5-(2-fluorophenyl)-1H-pyrrole-3-sulfonamide]
37 | < 500 nM | Cc1cc(F)c(NS(=O)(=O)c2c[nH]c(-c3ccccc3F)c2)cc1F [Cpd 075, N-(2,5-difluoro-4-methyl-phenyl)-5-(2-fluorophenyl)-1H-pyrrole-3-sulfonamide]
